# Measured values as given in PubChem BioAssay (NCI).
#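 Following 48 hours of exposure in 96-well plates, responses at five concentrations were used to interpolate endpoints linearly. GI50 is the concentration that inhibits growth by half. TGI: concentration producing complete growth inhibition.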
# Tests used:
# Assay in all cases: NCI anticancer screen, dose series, 48 h
# [1] = test system: HCT-116 colon
# [2] = test system: HCT-15 colon
# [3] = test system: HS 578T breast
# [4] = test system: M14 melanoma
# [5] = test system: NCI-H226 lung
# [6] = test system: OVCAR-4 ovarian
# [7] = test system: RXF 393 renal
# [8] = test system: SF-295 CNS
# [9] = test system: SK-MEL-5 melanoma
# [10] = test system: TK-10 renal
SMILES,GI50 [1],TGI [1],GI50 [2],TGI [2],GI50 [3],TGI [3],GI50 [4],TGI [4],GI50 [5],TGI [5],GI50 [6],TGI [6],GI50 [7],TGI [7],GI50 [8],GI50 [9],TGI [9],GI50 [10],TGI [10],TGI [8]
Nc1c(C(=O)Nc2cccc(Cl)c2)sc2nc3c(cc12)C(=O)CCC3,0.431 µM,> 100 µM,0.411 µM,> 100 µM,0.422 µM,> 100 µM,0.485 µM,> 100 µM,11.1 µM,> 100 µM,13.3 µM,> 100 µM,0.479 µM,> 42.2 µM,0.243 µM,0.141 µM,> 100 µM,36.7 µM,> 100 µM,
COc1cccc2c1nc(C(F)F)n2-c1nc(-c2ccc(NS(=O)(=O)CCN(C)C)cc2)nc(N2CCOCC2)n1,0.456 µM,2.98 µM,0.152 µM,5.06 µM,0.0664 µM,0.5 µM,0.243 µM,> 100 µM,0.191 µM,6.43 µM,0.138 µM,2.58 µM,0.105 µM,0.58 µM,0.0875 µM,0.204 µM,1.76 µM,0.0597 µM,0.615 µM,1.44 µM
O=c1[nH]c2ccccc2n1C1CCNCC1,> 100 µM,> 100 µM,> 100 µM,> 100 µM,> 100 µM,> 100 µM,> 100 µM,> 100 µM,> 100 µM,> 100 µM,> 100 µM,> 100 µM,> 100 µM,> 100 µM,> 100 µM,> 100 µM,> 100 µM,> 100 µM,> 100 µM,> 100 µM
C[N+]1([O-])C2CCC1CC(OC(=O)C(CO)c1ccccc1)C2 (configuration not stated),,> 100 µM,,> 100 µM,,> 100 µM,,> 100 µM,,> 100 µM,,> 100 µM,,> 100 µM,,,> 100 µM,,> 100 µM,> 100 µM
CC(=O)OCC1C(=O)OCC1C(=O)N1Cc2cc3ccccc3nc2C1 (configuration not stated),,3.5 µM,,6.99 µM,,> 86.5 µM,,3.67 µM,,18.8 µM,,4.89 µM,,2.57 µM,,,23.1 µM,,4.17 µM,29.9 µM
Cc1ccc(N)c(S)c1,,46.8 µM,,30.4 µM,,> 100 µM,,30.8 µM,,49.1 µM,,43.5 µM,,30.8 µM,,,30.6 µM,,43.1 µM,43.4 µM
COc1ccc2c(c1)[C@@H](NC(C)=O)CCc1cc(OC)c(OC)c(OC)c1-2,,0.528 µM,,> 30.9 µM,,> 100 µM,,> 22.6 µM,,> 16.3 µM,,> 100 µM,,> 8.58 µM,,,0.0298 µM,,> 100 µM,< 0.215 µM
O=C(CCCc1ccc(N(CCCl)CCCl)cc1)NCc1ccccc1,4.57 µM,20.7 µM,13.3 µM,> 100 µM,15.6 µM,> 100 µM,4.18 µM,24.2 µM,14.6 µM,47.2 µM,12.5 µM,35.1 µM,10.5 µM,25.2 µM,3.23 µM,8.14 µM,22.7 µM,15.5 µM,56.8 µM,28.6 µM
CCN1CCN(CCC(=O)Nc2cccc(-n3cc(-c4ccncc4)c(-c4ccc(Cl)c(OC)c4)n3)c2)CC1,0.374 µM,1.62 µM,0.491 µM,2.16 µM,0.454 µM,3.85 µM,0.387 µM,1.73 µM,1.26 µM,7.31 µM,0.919 µM,7.53 µM,0.244 µM,1.43 µM,0.36 µM,0.507 µM,1.83 µM,1.75 µM,5 µM,1.63 µM
CC(C)=CCc1cc2c(cc1O)C1=C(C(=O)C3=C(NCCS3(=O)=O)C1=O)C(C=C(C)C)O2 (configuration not stated),5.84 µM,> 16.7 µM,6.21 µM,> 16.7 µM,4.85 µM,> 16.7 µM,5.85 µM,> 16.7 µM,14.4 µM,> 16.7 µM,3.31 µM,> 16.7 µM,7.66 µM,> 16.7 µM,> 16.7 µM,3.35 µM,6.95 µM,> 16.7 µM,> 16.7 µM,> 16.7 µM
Sc1cccc2cccnc12,0.411 µM,7.8 µM,0.427 µM,14.4 µM,2.81 µM,16.4 µM,0.457 µM,6.09 µM,1.61 µM,8.83 µM,0.445 µM,12.7 µM,1.4 µM,8.28 µM,0.645 µM,0.822 µM,4.25 µM,4.16 µM,15.6 µM,12.8 µM
COC(=O)[C@@H](C)C[C@H](Cc1ccccc1)NC(=O)c1nc([C@@H](C[C@H](C(C)C)N(C)C(=O)[C@@H](NC(=O)[C@H]2C[C@H](O)CCN2C)C(C)C)OC(C)=O)sc1C(C)C,0.004 µM,3.88 µM,0.284 µM,> 11.1 µM,0.0122 µM,> 8.26 µM,0.0149 µM,1.24 µM,0.0257 µM,,0.0493 µM,> 11.1 µM,0.025 µM,> 11.1 µM,0.0164 µM,0.00369 µM,0.185 µM,0.319 µM,> 11.1 µM,> 11.1 µM
O=C1NC(=O)C(c2c[nH]c3ccccc23)=C1c1c[nH]c2ccccc12,9.33 µM,> 25 µM,8.32 µM,> 25 µM,5.56 µM,> 25 µM,10.9 µM,> 25 µM,3.83 µM,> 25 µM,10.9 µM,> 25 µM,4.57 µM,24.3 µM,13.3 µM,5.96 µM,20.2 µM,19.2 µM,> 25 µM,> 25 µM
CC(C)(C)CC(C)(C)c1ccc(OCCO)cc1,3.86 µg/mL,14.5 µg/mL,7.74 µg/mL,19.3 µg/mL,4.26 µg/mL,19.6 µg/mL,9.29 µg/mL,20.6 µg/mL,2.44 µg/mL,15.8 µg/mL,1.5 µg/mL,21.5 µg/mL,8.58 µg/mL,18.1 µg/mL,1.07 µg/mL,0.89 µg/mL,7.63 µg/mL,10.6 µg/mL,33 µg/mL,8.56 µg/mL
O=C(NCc1cn(Cc2cccc(Oc3ccccc3)c2)nn1)c1cccnc1Nc1ccc(F)cc1,5.02 µM,> 100 µM,,,30.9 µM,> 100 µM,13.7 µM,> 100 µM,38.6 µM,> 100 µM,23.4 µM,> 100 µM,5.69 µM,42 µM,5.66 µM,4.48 µM,38.8 µM,24.5 µM,> 100 µM,47.6 µM
COC(=O)N[C@H]1CCc2cc(OC)c(OC)c(OC)c2-c2ccc(SC)c(=O)cc21,< 0.01 µM,> 100 µM,< 0.01 µM,> 47.3 µM,< 0.01 µM,> 100 µM,< 0.01 µM,> 26.9 µM,< 0.01 µM,,0.0205 µM,> 100 µM,< 0.01 µM,> 100 µM,< 0.01 µM,< 0.01 µM,0.0191 µM,13.1 µM,> 100 µM,27.1 µM
C/C(=C\C(=O)O[C@H]1[C@@H]2[C@H](C)CC[C@H]2[C@]2(C)O[C@@]1(C1CCCCC1)C[C@H]2OC(=O)CO)c1ccccc1,6.18 µM,12 µM,6.81 µM,13 µM,0.0101 µM,0.0295 µM,7.95 µM,18.1 µM,5.98 µM,12.3 µM,7.25 µM,13.8 µM,0.0798 µM,7.12 µM,6.08 µM,6.45 µM,11.9 µM,7.6 µM,14.7 µM,11.7 µM
COc1ccc(C2=NN(C(N)=S)C(c3ccc4c(c3)OCO4)C2)cc1 (configuration not stated),2.96 µM,22.9 µM,2.88 µM,> 100 µM,2.82 µM,7.09 µM,3.77 µM,35.4 µM,2.49 µM,6.84 µM,3.4 µM,> 100 µM,4.28 µM,> 100 µM,2.64 µM,2.47 µM,8.41 µM,2.47 µM,9.54 µM,11.9 µM
O=C(O)/C=C\C(=O)Nc1ccc2c(c1)-c1ccccc1C2,,> 100 µM,,> 100 µM,,> 100 µM,,> 100 µM,,78.2 µM,,> 100 µM,,> 100 µM,,,> 100 µM,,> 100 µM,> 100 µM
Cc1c2cnccc2c(C)c2c1c1ccccc1n2CCOC(=O)c1ccccc1,,28.2 µM,,59.2 µM,,84.6 µM,,> 100 µM,,70 µM,,49.3 µM,,27.3 µM,,,38.9 µM,,40.9 µM,33 µM
O=C1C=C(Nc2ccccc2)c2ccccc2C1=O,2.15 µM,5.49 µM,1.77 µM,3.98 µM,2.57 µM,6.32 µM,1.96 µM,3.65 µM,1.93 µM,4.21 µM,1.68 µM,3.53 µM,2.53 µM,8.77 µM,1.9 µM,1.7 µM,3.12 µM,2.86 µM,7.75 µM,3.5 µM
Cn1cc(-c2ccc3nc(-c4ccc(CC(=O)Nc5cc(C(C)(C)C)no5)cc4)cnc3c2)cn1,0.029 µM,> 3 µM,0.0197 µM,> 3 µM,0.024 µM,> 3 µM,0.0172 µM,> 3 µM,0.0444 µM,> 3 µM,0.0193 µM,> 3 µM,0.0195 µM,> 3 µM,0.0563 µM,,> 3 µM,0.0139 µM,> 3 µM,> 3 µM
CN(C)CCNC(=O)c1cc2c3cc(Cl)ccc3[nH]c2c2ncccc12,1.52 µM,4.68 µM,1.84 µM,4.9 µM,1.87 µM,9.66 µM,1.7 µM,3.68 µM,4.04 µM,16.7 µM,4.89 µM,19.6 µM,1.74 µM,4.28 µM,22.8 µM,1.34 µM,2.69 µM,3.81 µM,13.4 µM,59.6 µM
CCCCn1c(=O)[nH]c(N)c([C@@H]2c3c([nH]c(=O)n(CCCC)c3=O)Oc3ccc4ccccc4c32)c1=O,1.53 µM,3.02 µM,1.67 µM,3.41 µM,4.55 µM,37.1 µM,1.92 µM,4.2 µM,4.96 µM,25.2 µM,2.26 µM,10.8 µM,2.17 µM,4.27 µM,5.83 µM,3.06 µM,10.7 µM,2.95 µM,7.05 µM,19.2 µM
C=CCc1cccc(C=O)c1O,4.07 µM,> 100 µM,6.56 µM,> 100 µM,> 100 µM,> 100 µM,39.2 µM,> 100 µM,> 100 µM,> 100 µM,21.7 µM,> 100 µM,94 µM,> 100 µM,> 100 µM,38.5 µM,> 100 µM,> 100 µM,> 100 µM,> 100 µM
O=C1CSC(c2c[nH]c3ccccc23)N1c1cccc(Cl)c1 (configuration not stated),,> 100 µM,,> 100 µM,,> 100 µM,,> 100 µM,,> 100 µM,,> 100 µM,,> 100 µM,,,> 100 µM,,> 100 µM,> 100 µM
CCN(Cc1ccc(OC)cc1)c1ccc(CO)c(Cl)c1,0.0875 µM,10.8 µM,12.2 µM,> 100 µM,22.1 µM,> 86.1 µM,16.1 µM,58.3 µM,0.0519 µM,0.182 µM,0.369 µM,15.9 µM,7.35 µM,28.3 µM,1.31 µM,2.66 µM,18.6 µM,,,31.5 µM
